# Results: patent US6706740B2, “Fungicidal heterocyclic aromatic amides and their compositions, methods of use and preparation” (Dow AgroSciences LLC, priority 1999, dated 2004)
# Like-named read-outs stand apart in the source and are kept apart here.
# Tests used:
# [1] = system: Magnaporthe grisea (Pyricularia oryzae—PYRIOR); assay: microbe, parasite or virus in culture; type: cell-based; details: Pyricularia oryzae, read-out: PYRIOR in vitro Growth Inhibition
# [2] = system: Stagonospora nodorum (Leptosphaeria nodorum—LEPTNO); assay: In vitro fungal growth inhibition, Stagonospora nodorum (LEPTNO); type: cell-based; details: Leptosphaeria, read-out: LEPTNO in vitro Growth Inhibition
# Ustilago maydis (USTIMA) = assay: microbe, parasite or virus in culture; type: cell-based; details: Mycosarcoma maydis, read-out: USTIMA in vitro Growth Inhibition
# Erysiphe graminis—ERYSGT = assay: Powdery Mildew of Wheat, in vivo whole plant, 24 Hour Protectant; details: for pest or weed control at 100 ppm: Erysiphe, read-out: ERYSGT in vivo 1 Day Protectant
# [3] = system: Phytophthora infestans—PHYTIN; assay: whole plant or invertebrate; type: in vivo; details: Phytophthora, in Solanum lycopersicum, 24 h, read-out: PHYTIN in vivo 1 Day Protectant
# Septoria tritici—SEPTTR = assay: Leaf Blotch of Wheat, in vivo whole plant, 24 Hour Protectant; details: for pest or weed control at 100 ppm: Zymoseptoria tritici, 24 h, read-out: SEPTTR in vivo 1 Day Protectant
# [4] = system: Leptosphaeria nodorum—LEPTNO; assay: Glume Blotch of Wheat, in vivo whole plant, 24 Hour Protectant; details: for pest or weed control at 100 ppm: Leptosphaeria, read-out: LEPTNO in vivo 1 Day Protectant
# [5] = system: Rhizoctonia solani (RHIZSO); assay: microbe, parasite or virus in culture; type: cell-based; details: Rhizoctonia solani, read-out: RHIZSO in vitro Growth Inhibition
# [6] = system: Mycosphaerella graminicola (Septoria tritici—SEPTTR); assay: In vitro fungal growth inhibition, Mycosphaerella graminicola (SEPTTR); type: cell-based; details: Zymoseptoria tritici, read-out: SEPTTR in vitro Growth Inhibition
# [7] = system: Puccinia recondita—PUCCRT; assay: Brown Rust of Wheat, in vivo whole plant, 24 Hour Protectant; details: for pest or weed control at 100 ppm: Puccinia, read-out: PUCCRT in vivo 1 Day Protectant
# [8] = system: Phytophthora infestans (PHYTIN); assay: microbe, parasite or virus in culture; type: cell-based; details: Phytophthora infestans, read-out: PHYTIN in vitro Growth Inhibition
# [9] = wheat plants sprayed at 100 ppm, inoculated after 24 hours, control of fungal infection vs untreated plants
# [10] = 100 ppm spray, wheat, 24 hour protectant, control of fungal infection vs untreated plants
# [11] = 100 ppm spray, 24 hour protectant, wheat, control of fungal infection vs untreated plants
# [12] = 100 ppm spray, wheat, 24 hour protectant, % control of fungal infection vs untreated plants
SMILES,inhibition at 25 ppm [1] [%],inhibition at 25 ppm (Ustilago maydis (USTIMA)) [%],pest or weed control at 100 ppm (Erysiphe graminis—ERYSGT; [9]) [%],pest or weed control at 100 ppm [3] [%],pest or weed control at 100 ppm (Septoria tritici—SEPTTR; [9]) [%],inhibition at 25 ppm [5] [%],"pest or weed control at 100 ppm [7, 9] [%]",inhibition at 25 ppm [8] [%],inhibition at 25 ppm ([2]; 25 ppm in growth medium) [%],inhibition at 25 ppm ([6]; 25 ppm in growth medium) [%],also measured
COc1ccc(C(C)NC(=O)c2ccncc2O)cc1 (stereo not shown) [Compound 508],< 80,< 80,< 25,< 25,< 25,< 80,< 25,< 80,–,–,"inhibition at 25 ppm ([2]; 25 ppm in the growth medium): < 80%; pest or weed control at 100 ppm [4, 9]: < 25%; inhibition at 25 ppm ([6]; 25 ppm in the growth medium): < 80%"
COc1ccnc(C(=O)N[C@@H]2O[C@H](COC(C)=O)[C@H](OC(C)=O)[C@H](OC(C)=O)[C@H]2OC(C)=O)c1OC(C)=O [Compound 591],< 80,< 80,< 25,< 25,25 to 74,< 80,< 25,< 80,–,–,"inhibition at 25 ppm ([2]; 25 ppm in the growth medium): < 80%; pest or weed control at 100 ppm [4, 9]: 25 to 74%; inhibition at 25 ppm ([6]; 25 ppm in the growth medium): < 80%"
COc1ccnc(C(=O)NC(COC(=O)CCc2ccccc2)C(=O)OC(C)COC(=O)C(C)C)c1O (stereo not shown) [Compound 358],< 80,< 80,–,< 25,–,< 80,–,< 80,< 80,< 80,"pest or weed control at 100 ppm (Erysiphe graminis—ERYSGT; [10]): < 25%; pest or weed control at 100 ppm (Septoria tritici—SEPTTR; [10]): 25 to 74%; pest or weed control at 100 ppm [4, 10]: 25 to 74%; pest or weed control at 100 ppm [7, 10]: 25 to 74%"
O=C(Nc1ccc(Oc2cccc(C(F)(F)F)c2)cc1)c1nscc1O [Compound 551],< 80,< 80,25 to 74,< 25,25 to 74,< 80,< 25,< 80,–,–,"inhibition at 25 ppm ([2]; 25 ppm in the growth medium): < 80%; pest or weed control at 100 ppm [4, 9]: 25 to 74%; inhibition at 25 ppm ([6]; 25 ppm in the growth medium): < 80%"
CCCCC1(C)CC(NC(=O)c2nccc(OC)c2O)CC(C)(C)C1 (stereo not shown) [Compound 253],> 80,< 80,–,< 25,–,< 80,–,> 80,> 80,> 80,"pest or weed control at 100 ppm (Erysiphe graminis—ERYSGT; [11]): < 25%; pest or weed control at 100 ppm (Septoria tritici—SEPTTR; [11]): 25 to 74%; pest or weed control at 100 ppm [4, 11]: 25 to 74%; pest or weed control at 100 ppm [7, 11]: 25 to 74%"
COc1ccnc(C(=O)N[C@H]2COC(=O)[C@H](Cc3ccccc3)[C@@H](OC(=O)Cc3ccccc3)[C@H](C)OC2=O)c1O [Compound 395],< 80,> 80,–,< 25,–,< 80,–,< 80,–,–,inhibition at 25 ppm [2]: > 80%; pest or weed control at 100 ppm (Erysiphe graminis—ERYSGT; 24 h): < 25%; pest or weed control at 100 ppm (Septoria tritici—SEPTTR): 25 to 74%; pest or weed control at 100 ppm ([4]; 24 h): 25 to 74%; inhibition at 25 ppm [6]: > 80%; pest or weed control at 100 ppm ([7]; 24 h): 25 to 74%
CCCCCCC(=O)Oc1c(OC)ccnc1C(=O)N[C@H]1COC(=O)[C@H](Cc2ccccc2)[C@@H](OC(=O)C(C)C)[C@H](C)OC1=O [Compound 613],< 80,< 80,–,25 to 74,–,< 80,–,> 80,< 80,< 80,"ERYSGT in vivo 1 Day Protectant (Erysiphe graminis—ERYSGT; [12]): + +; SEPTTR in vivo 1 Day Protectant (Septoria tritici—SEPTTR; [12]): + +; pest or weed control at 100 ppm [4, 12]: 25 to 74%; PUCCRT in vivo 1 Day Protectant [7, 12]: + +"
COc1ccnc(C(=O)NCC#CCCl)c1O [Compound 239],< 80,< 80,–,< 25,–,< 80,–,< 80,< 80,< 80,"pest or weed control at 100 ppm (Erysiphe graminis—ERYSGT; [11]): < 25%; pest or weed control at 100 ppm (Septoria tritici—SEPTTR; [11]): 25 to 74%; pest or weed control at 100 ppm [4, 11]: 25 to 74%; pest or weed control at 100 ppm [7, 11]: 25 to 74%"
CCCC[C@H]1C(=O)O[C@H](C)C(NC(=O)c2cccc(NC(=O)c3nccc(OC)c3O)c2O)C(=O)O[C@@H](C)[C@@H]1OC(=O)CC(C)C (stereo partly shown) [Compound 473],–,–,–,< 25,–,–,–,–,–,–,pest or weed control at 100 ppm (Erysiphe graminis—ERYSGT; 24 h): < 25%; pest or weed control at 100 ppm (Septoria tritici—SEPTTR): 25 to 74%; LEPTNO in vivo 1 Day Protectant ([4]; in vivo): + +; pest or weed control at 100 ppm ([7]; 24 h): 25 to 74%
COCCC(=O)Oc1c(OC)ccnc1C(=O)N[C@H]1COC(=O)[C@H](Cc2ccccc2)[C@@H](OC(=O)CCOC)[C@H](C)OC1=O [Compound 705],–,–,–,< 25,–,–,–,–,–,–,"pest or weed control at 100 ppm (Erysiphe graminis—ERYSGT; [12]): < 25%; pest or weed control at 100 ppm (Septoria tritici—SEPTTR; [12]): 25 to 74%; LEPTNO in vivo 1 Day Protectant [4, 12]: + +; PUCCRT in vivo 1 Day Protectant [7, 12]: + +"
CC(C)C(=O)O[C@H]1[C@H](C)OC(=O)[C@@H](NC(=O)c2ccncc2O)COC(=O)[C@@H]1Cc1ccccc1 [Compound 513],–,–,< 25,< 25,< 25,–,25 to 74,–,–,–,"LEPTNO in vivo 1 Day Protectant [4, 9]: + +"
COc1ccnc(C(=O)N[C@H]2COC(=O)[C@H](Cc3ccccc3)C[C@H](C)OC2=O)c1O [Compound 382],< 80,< 80,–,–,–,< 80,–,< 80,< 80,> 80,"pest or weed control at 100 ppm (Erysiphe graminis—ERYSGT; [10]): < 25%; pest or weed control at 100 ppm (Septoria tritici—SEPTTR; [10]): 25 to 74%; LEPTNO in vivo 1 Day Protectant [4, 10]: + +; pest or weed control at 100 ppm [7, 10]: 25 to 74%"
COc1ccnc(C(=O)N[C@H]2CO[C@@H](C(C)Cc3ccc(C(C)(C)C)cc3)OC2)c1OC(C)=O (stereo partly shown) [Compound 593],< 80,< 80,< 25,< 25,25 to 74,< 80,–,< 80,–,–,"inhibition at 25 ppm ([2]; 25 ppm in the growth medium): < 80%; inhibition at 25 ppm ([6]; 25 ppm in the growth medium): < 80%; PUCCRT in vivo 1 Day Protectant [7, 9]: + +"
COc1ccnc(C(=O)NC2CCN(C(=O)c3ccccc3)CC2)c1O [Compound 308],–,< 80,–,< 25,–,–,–,–,–,–,"pest or weed control at 100 ppm (Erysiphe graminis—ERYSGT; [11]): 25 to 74%; pest or weed control at 100 ppm (Septoria tritici—SEPTTR; [11]): 25 to 74%; pest or weed control at 100 ppm [4, 11]: < 25%; pest or weed control at 100 ppm [7, 11]: < 25%"
Cc1ccnc(C(=O)NC2CC(C)(C)CC(C)(C)C2)c1OC(=O)C(C)C [Compound 571],–,–,< 25,25 to 74,< 25,–,< 25,–,–,–,"pest or weed control at 100 ppm [4, 9]: 25 to 74%"
COc1ccnc(C(=O)N[C@H]2COC(=O)[C@H](Cc3ccccc3)[C@@H](OC(=O)C(C)C)[C@H](C)OC2=O)c1O[Si](C)(C)C(C)(C)C [Compound 720],–,–,–,< 25,–,–,–,–,–,–,"pest or weed control at 100 ppm (Erysiphe graminis—ERYSGT; [12]): < 25%; SEPTTR in vivo 1 Day Protectant (Septoria tritici—SEPTTR; [12]): + +; LEPTNO in vivo 1 Day Protectant [4, 12]: + +; PUCCRT in vivo 1 Day Protectant [7, 12]: + +"
